Several values for one entry are separate records, joined by “and”; a condition that tells them apart may be missing. Equal entries are not always repeated. Where two headings read alike, the source gives them in different places. *1 amine or outer side, *2 acyl side, *3 side chain or, on linkers, in order; H or OH if unused. Side-chain parts run from the residue outwards. [ ]: non-standard residue; d: D form. The star is where a group is joined. C20 diacid = O=C(O)CCCCCCCCCCCCCCCCCCC(=O)*; γGlu = O=C(O)[C@H](CCC(=O)[*:2])N[*:1]; εLys = N[C@@H](CCCCN[*:1])C(=O)[*:2]; pGlu = O=C1CC[C@@H](C(=O)O)N1; αMeL = CC(C)C[C@](C)(N)C(=O)O; AEEA = NCCOCCOCC(=O)O; Aib = CC(C)(N)C(=O)O
Columns and labels:
[1] = Pharmacokinetics in Sprague Dawley rats, single subcutaneous or intravenous dose (incl. 10, 30, 100 nmol/kg dose response); assay type: in vivo
human CRHR2 = biological target: T1, human CRHR2 (Homo sapiens, UniProt Q13324); assay: Human CRHR2 cAMP assay (HTRF) in HEK293 cells stably expressing human CRHR2; assay type: cell-based; conditions: HEK293 cells overexpressing human CRHR2; relative EC50, maximum 10 nM human UCN2; mean ± SE; read-out: hCRHR2 cAMP EC50 (pM, ± SE)
T1 construct: expressed in transfected cells
T1 sequence (Q13324 1-438 isoform Q13324-2): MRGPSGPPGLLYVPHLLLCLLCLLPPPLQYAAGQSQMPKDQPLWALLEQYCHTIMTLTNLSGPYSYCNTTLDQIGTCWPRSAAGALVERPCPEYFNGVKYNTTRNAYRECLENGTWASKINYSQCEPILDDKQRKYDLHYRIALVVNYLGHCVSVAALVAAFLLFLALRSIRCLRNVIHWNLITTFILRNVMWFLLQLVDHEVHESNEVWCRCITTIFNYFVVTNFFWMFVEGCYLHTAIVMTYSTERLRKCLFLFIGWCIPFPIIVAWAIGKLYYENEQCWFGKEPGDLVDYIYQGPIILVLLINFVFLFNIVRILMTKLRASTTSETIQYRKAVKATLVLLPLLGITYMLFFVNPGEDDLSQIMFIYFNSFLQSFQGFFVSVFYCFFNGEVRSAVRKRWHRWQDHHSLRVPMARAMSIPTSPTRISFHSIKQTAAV
How it was run: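 Stably expressing HEK293 clones received peptide concentration series in phosphodiesterase-inhibited buffer (0.25 mM IBMX, pH 7.4). After receptor-specific incubation (CRHR1 1 h at 37° C; CRHR2 30 min at room temperature), cells were lysed with HTRF cAMP reagents for 60 min and the 665/620 nm ratio recorded.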

[2] = dose response, single subcutaneous dose 10 nmol/kg, male Sprague Dawley rats, individual animal
[3] = dose response, single subcutaneous dose 30 nmol/kg, male Sprague Dawley rats, individual animal
[4] = dose response, single subcutaneous dose 100 nmol/kg, male Sprague Dawley rats, individual animal
[5] = male Sprague Dawley rats, single intravenous dose 183 nmol/kg, individual animal
[6] = male, Sprague Dawley, rat, plasma, iv, 183 nmol/kg, single intravenous dose 183 nmol/kg, Mean
[7] = male, Sprague Dawley, rat, plasma, iv, 183 nmol/kg, single intravenous dose 183 nmol/kg, individual animal
[8] = single subcutaneous dose 183 nmol/kg, male Sprague Dawley rats, individual animal

Which AUC0-inf [1, 2] does the source give for “[pGlu]GSPSGIVTS[αMeL]DVPT[Aib][αMeL]LQKILEQERAEKARQQAK([γGlu-AEEA-εLys-C20 diacid])EAAEILAQV-NH2 [SEQ ID NO: 22, Pyr-GSPSGIVTS αMeL DVPT Aib αMeL LQKILEQERAEKARQQAK(γE-(2-[2-(2-Amino-ethoxy)-ethoxy]-acetyl)-ϵK-CO-(CH2)18-CO2H)EAAEILAQV-NH2]” here?
Its AUC0-inf is 2.73 µM·h and 2.81 µM·h and 3.02 µM·h.

What about the CL/F [1, 2] of the same substance?
The CL/F was 3.60 mL/h/kg and 3.54 mL/h/kg.

What about the Cmax [1, 2] of the same substance?
Its Cmax is 49.5 nmol/L and 51.3 nmol/L and 48.6 nmol/L.

What about the T1/2 [1, 2] of the same substance?
The T1/2 was 23.1 h and 41.5 h.

And the AUC0-inf [1, 3]?
Its AUC0-inf is 7.52 µM·h and 8.6 µM·h and 7.16 µM·h.

What about the CL/F [1, 3] of the same substance?
Its CL/F is 3.62 mL/h/kg and 4.25 mL/h/kg.

And the Cmax [1, 3]?
Its Cmax is 126 nmol/L and 132 nmol/L and 128 nmol/L.

And the T1/2 [1, 3]?
Its T1/2 is 33.6 h and 24.1 h.

What about the AUC0-inf [1, 4] of the same substance?
The AUC0-inf was 26.7 µM·h and 26 µM·h and 26.3 µM·h.

What about the CL/F [1, 4] of the same substance?
The CL/F was 3.91 mL/h/kg.

And the Cmax [1, 4]?
Its Cmax is 372 nmol/L and 416 nmol/L and 369 nmol/L.

What about the T1/2 [1, 4] of the same substance?
Its T1/2 is 25.9 h and 30.7 h.

And the “AUC0-inf” value [1, 5]?
The value was 88.4 µM·h and 79.6 µM·h and 92.3 µM·h.

What about the “C0” value [1, 5] of the same substance?
Its value is 3.24 µM and 5.39 µM and 5.2 µM.

What about the “CL” value [1, 5] of the same substance?
The value was 2.30 mL/h/kg and 1.98 mL/h/kg.

What about the “T1/2” value [1, 5] of the same substance?
Its value is 21.3 h and 22.9 h.

And the clearance [1, 6]?
Its clearance is 2.12 mL/h/kg.

And the half-life [1, 6]?
Its half-life is 1380 min.

What about the clearance [1, 7] of the same substance?
Its clearance is 2.07 mL/h/kg.

And the half-life [1, 7]?
Its half-life is 1480 min.

And the half-life ([1]; male, Sprague Dawley, rat, plasma, sc, 10 nmol/kg, dose response, single subcutaneous dose 10 nmol/kg, individual animal)?
Its half-life is 1820 min.

And the CL/F ([1]; male, Sprague Dawley, rat, plasma, sc, 10 nmol/kg, dose response, single subcutaneous dose 10 nmol/kg, individual animal, read-out: CL/F (converted))?
The CL/F was 3.75 mL/h/kg.

What about the Tmax ([1]; male, Sprague Dawley, rat, plasma, sc, 10 nmol/kg, dose response, single subcutaneous dose 10 nmol/kg, individual animal, read-out: Tmax) of the same substance?
The Tmax was 24 h.

What about the half-life ([1]; male, Sprague Dawley, rat, plasma, sc, 10 nmol/kg, dose response, single subcutaneous dose 10 nmol/kg, mean) of the same substance?
The half-life was 1900 min.

What about the CL/F ([1]; male, Sprague Dawley, rat, plasma, sc, 10 nmol/kg, dose response, single subcutaneous dose 10 nmol/kg, mean, read-out: CL/F (converted)) of the same substance?
Its CL/F is 3.63 mL/h/kg.

What about the Tmax ([1]; male, Sprague Dawley, rat, plasma, sc, 10 nmol/kg, dose response, single subcutaneous dose 10 nmol/kg, mean, read-out: Tmax) of the same substance?
Its Tmax is 24 h.

What about the half-life ([1]; male, Sprague Dawley, rat, plasma, sc, 30 nmol/kg, dose response, single subcutaneous dose 30 nmol/kg, individual animal) of the same substance?
Its half-life is 1640 min.

And the CL/F ([1]; male, Sprague Dawley, rat, plasma, sc, 30 nmol/kg, dose response, single subcutaneous dose 30 nmol/kg, individual animal, read-out: CL/F (converted))?
The CL/F was 4.07 mL/h/kg.

What about the Tmax ([1]; male, Sprague Dawley, rat, plasma, sc, 30 nmol/kg, dose response, single subcutaneous dose 30 nmol/kg, individual animal, read-out: Tmax) of the same substance?
The Tmax was 24 h.

And the half-life ([1]; male, Sprague Dawley, rat, plasma, sc, 30 nmol/kg, dose response, single subcutaneous dose 30 nmol/kg, mean)?
Its half-life is 1700 min.

And the CL/F ([1]; male, Sprague Dawley, rat, plasma, sc, 30 nmol/kg, dose response, single subcutaneous dose 30 nmol/kg, mean, read-out: CL/F (converted))?
The CL/F was 3.98 mL/h/kg.

What about the Tmax ([1]; male, Sprague Dawley, rat, plasma, sc, 30 nmol/kg, dose response, single subcutaneous dose 30 nmol/kg, mean, read-out: Tmax) of the same substance?
The Tmax was 24 h.

And the half-life ([1]; male, Sprague Dawley, rat, plasma, sc, 100 nmol/kg, dose response, single subcutaneous dose 100 nmol/kg, individual animal)?
The half-life was 1720 min.

What about the CL/F ([1]; male, Sprague Dawley, rat, plasma, sc, 100 nmol/kg, dose response, single subcutaneous dose 100 nmol/kg, individual animal, read-out: CL/F (converted)) of the same substance?
The CL/F was 3.85 mL/h/kg.

What about the Tmax ([1]; male, Sprague Dawley, rat, plasma, sc, 100 nmol/kg, dose response, single subcutaneous dose 100 nmol/kg, individual animal, read-out: Tmax) of the same substance?
Its Tmax is 24 h.

And the half-life ([1]; male, Sprague Dawley, rat, plasma, sc, 100 nmol/kg, dose response, single subcutaneous dose 100 nmol/kg, mean)?
Its half-life is 1700 min.

And the CL/F ([1]; male, Sprague Dawley, rat, plasma, sc, 100 nmol/kg, dose response, single subcutaneous dose 100 nmol/kg, mean, read-out: CL/F (converted))?
The CL/F was 3.89 mL/h/kg.

What about the Tmax ([1]; male, Sprague Dawley, rat, plasma, sc, 100 nmol/kg, dose response, single subcutaneous dose 100 nmol/kg, mean, read-out: Tmax) of the same substance?
The Tmax was 24 h.

What about the half-life ([1]; male, Sprague Dawley, rat, plasma, sc, 183 nmol/kg, single subcutaneous dose 183 nmol/kg, individual animal) of the same substance?
Its half-life is 1570 min.

What about the CL/F ([1]; male, Sprague Dawley, rat, plasma, sc, 183 nmol/kg, single subcutaneous dose 183 nmol/kg, individual animal, read-out: CL/F (converted)) of the same substance?
Its CL/F is 4.75 mL/h/kg.

And the Tmax ([1]; male, Sprague Dawley, rat, plasma, sc, 183 nmol/kg, single subcutaneous dose 183 nmol/kg, individual animal, read-out: Tmax)?
Its Tmax is 24 h.

And the half-life ([1]; male, Sprague Dawley, rat, plasma, sc, 183 nmol/kg, single subcutaneous dose 183 nmol/kg, mean)?
Its half-life is 1430 min.

And the CL/F ([1]; male, Sprague Dawley, rat, plasma, sc, 183 nmol/kg, single subcutaneous dose 183 nmol/kg, mean, read-out: CL/F (converted))?
Its CL/F is 5.04 mL/h/kg.

And the Tmax ([1]; male, Sprague Dawley, rat, plasma, sc, 183 nmol/kg, single subcutaneous dose 183 nmol/kg, mean, read-out: Tmax)?
Its Tmax is 32 h.

What about the AUC0-inf ([1]; rat, plasma, sc, dose response, single subcutaneous dose 10 nmol/kg, male Sprague Dawley rats, mean, read-out: AUC0-inf) of the same substance?
Its AUC0-inf is 2.85 µM·h.

And the Cmax ([1]; rat, plasma, sc, dose response, single subcutaneous dose 10 nmol/kg, male Sprague Dawley rats, mean, read-out: Cmax)?
The Cmax was 49.8 nmol/L.

And the AUC0-inf ([1]; rat, plasma, sc, dose response, single subcutaneous dose 30 nmol/kg, male Sprague Dawley rats, mean, read-out: AUC0-inf)?
Its AUC0-inf is 7.76 µM·h.

What about the Cmax ([1]; rat, plasma, sc, dose response, single subcutaneous dose 30 nmol/kg, male Sprague Dawley rats, mean, read-out: Cmax) of the same substance?
Its Cmax is 129 nmol/L.

And the AUC0-inf ([1]; rat, plasma, sc, dose response, single subcutaneous dose 100 nmol/kg, male Sprague Dawley rats, mean, read-out: AUC0-inf)?
The AUC0-inf was 26.3 µM·h.

What about the Cmax ([1]; rat, plasma, sc, dose response, single subcutaneous dose 100 nmol/kg, male Sprague Dawley rats, mean, read-out: Cmax) of the same substance?
The Cmax was 386 nmol/L.

What about the AUC0-inf ([1]; rat, plasma, sc, single subcutaneous dose 183 nmol/kg, male Sprague Dawley rats, mean, read-out: AUC0-inf) of the same substance?
Its AUC0-inf is 36.8 µM·h.

What about the Cmax ([1]; rat, plasma, sc, single subcutaneous dose 183 nmol/kg, male Sprague Dawley rats, mean, read-out: Cmax) of the same substance?
The Cmax was 583 nmol/L.

And the AUC0-inf ([1]; rat, plasma, male Sprague Dawley rats, single intravenous dose 183 nmol/kg, Mean, read-out: AUC0-inf)?
Its AUC0-inf is 86.8 µM·h.

And the C0 ([1]; rat, plasma, male Sprague Dawley rats, single intravenous dose 183 nmol/kg, Mean, read-out: C0)?
Its C0 is 4.61 µM.

What about the AUC0-inf [1, 8] of the same substance?
Its AUC0-inf is 38.9 µM·h and 34.3 µM·h and 37.1 µM·h.

And the CL/F [1, 8]?
The CL/F was 5.39 mL/h/kg and 4.99 mL/h/kg.

What about the Cmax [1, 8] of the same substance?
The Cmax was 783 nmol/L and 439 nmol/L and 527 nmol/L.

What about the T1/2 [1, 8] of the same substance?
Its T1/2 is 21.8 h and 23.5 h.

And the Tmax [1, 8]?
Its Tmax is 48 h.

And the EC50 (human CRHR2)?
Its EC50 is 11.3 ± 3 pM.

Reference: patent publication US20250163119A1, “COMPOUNDS FOR THE TREATMENT OF DIABETES OR OBESITY” (Eli Lilly and Company, priority 2023, published 2025)
